In publication PMC8715118, “Assessing potentiation of the (α4)3(β2)2 nicotinic acetylcholine receptor by the allosteric agonist CMPI” (The Journal of Biological Chemistry, 2021):
Read-outs that look alike come from different tables or passages of the source.

Assays:
Assay type in all cases: cell-based
(α4H116A)3(β2)2 nAChR [1] = molecular target: T1, (α4H116A)3(β2)2 nAChR (Homo sapiens, UniProt P17787+P43681, H142A); test: Two-electrode voltage-clamp, oocytes expressing (α4H116A)3(β2)2 nAChR
T1 construct: expressed in transfected cells; host or cells: Xenopus laevis oocytes injected with cRNA, 8:1 α4:β2
T1 sequence (P43681 27-627 H142A): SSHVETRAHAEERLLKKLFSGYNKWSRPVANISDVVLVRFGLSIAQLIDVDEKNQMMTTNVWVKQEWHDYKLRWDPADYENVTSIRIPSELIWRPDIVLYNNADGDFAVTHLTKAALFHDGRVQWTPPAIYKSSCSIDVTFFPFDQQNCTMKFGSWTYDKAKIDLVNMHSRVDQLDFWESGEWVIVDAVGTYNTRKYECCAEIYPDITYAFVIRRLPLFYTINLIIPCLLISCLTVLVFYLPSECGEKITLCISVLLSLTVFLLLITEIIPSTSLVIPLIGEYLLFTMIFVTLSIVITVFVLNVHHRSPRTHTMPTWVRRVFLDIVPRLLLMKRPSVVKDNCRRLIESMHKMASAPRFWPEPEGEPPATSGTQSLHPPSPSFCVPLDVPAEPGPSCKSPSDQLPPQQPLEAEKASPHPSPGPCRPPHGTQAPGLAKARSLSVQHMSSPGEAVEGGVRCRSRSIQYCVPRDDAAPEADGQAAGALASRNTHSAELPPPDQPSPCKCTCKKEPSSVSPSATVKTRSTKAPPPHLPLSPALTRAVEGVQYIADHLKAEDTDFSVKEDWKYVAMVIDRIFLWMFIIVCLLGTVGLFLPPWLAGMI
T1 sequence (P17787 26-502): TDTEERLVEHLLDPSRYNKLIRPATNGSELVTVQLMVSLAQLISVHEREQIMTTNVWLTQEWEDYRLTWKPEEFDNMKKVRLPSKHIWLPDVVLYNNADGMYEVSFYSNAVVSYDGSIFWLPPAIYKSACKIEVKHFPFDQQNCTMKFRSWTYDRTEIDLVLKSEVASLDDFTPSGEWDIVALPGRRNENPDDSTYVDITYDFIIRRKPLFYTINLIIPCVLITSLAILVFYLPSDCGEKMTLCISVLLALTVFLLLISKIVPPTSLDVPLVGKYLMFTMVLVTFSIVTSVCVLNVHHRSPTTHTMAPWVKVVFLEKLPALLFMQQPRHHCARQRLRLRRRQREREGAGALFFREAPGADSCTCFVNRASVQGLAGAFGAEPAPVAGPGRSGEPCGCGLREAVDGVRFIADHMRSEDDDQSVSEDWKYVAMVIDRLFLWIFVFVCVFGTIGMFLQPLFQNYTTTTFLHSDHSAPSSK
Method: (§1) Oocytes-positive female Xenopus laevis were purchased from NASCO, and all procedures were performed according to an animal use protocol approved by the Institutional Animals Care and Use Committee of The University of Texas Health Science Center at Tyler. Ovarian lobules were surgically harvested, treated with collagenase type 2, and Stage V and VI oocytes were visually selected and maintained at 18 °C in modified ND96-gentamicin buffer (96 mM NaCl, 2 mM KCl, 1.8 mM CaCl2, 1 mM MgCl2, 5 mM Hepes, and 50 μg/ml gentamicin, pH 7.6).
(§2) pSP64 Poly(A) plasmids with cDNA encoding for human α4 or β2 nAChR subunit were used to prepare cRNA transcripts suitable for oocyte expression. The plasmids were linearized with AseI (hα4) and PvuII (hβ2), then cRNA transcripts were prepared in vitro using mMESSAGE mMACHINE high yield-capped RNA transcription kits (Ambion, Thermo Fisher Scientific), purified on NucAway Spin column (Invitrogen, Thermo Fisher Scientific), and stored at −80 °C until used. Point mutations within the plasmid encoding the α4 nAChR subunit were introduced using QuikChange II Site-Directed Mutagenesis Kit (Agilent Technologies), as described previously ([28]). To generate amino acid substitutions (K64T, E66I, H116V, H116L, and H116A), two custom-designed complementary oligos containing the desired mutation were used (Integrated DNA Technologies). The forward primers were as the following with the codon for mutated amino acids are underlined and nucleotide(s) changes are bolded and italicized:
(§3) The oocytes were injected with 10 to 50 ng of a cRNA mix containing α4 (WT or mutant) and β2 RNAs at ratios of 8:1(α4:β) or 1:8 (α4:β2) to bias expression toward (α4)3(β2)2 or (α4)2(β2)3 nAChRs, respectively. The injection of oocytes with RNAs mixture containing four folds or higher α4 RNA than β2 RNA have been established to express receptor population that is made up of three α4 and two β2 subunits ([9], [12], [28], [43], [44], [45]).
24 to 72 h after cRNA injection, Xenopus oocytes were placed in a custom-made recording chamber that is connected to an eight-channel automated perfusion system (Warner Instruments) and perfused with recording buffer (100 mM NaCl, 2 mM KCl, 1 mM CaCl2, 0.8 mM MgCl2, 1 mM EGTA, and 10 mM Hepes, pH 7.5). Unless otherwise specified in figure legends, each recording run included several drug applications (10 s of an agonist with or without CMPI or NS9283) separated by 3 to 4 min buffer wash intervals. Between recording runs, the oocytes were washed with recording buffer for at last 5 min. The oocytes were voltage-clamped at −50 mV using Oocyte Clamp OC-725B (Warner Instruments). The currents were digitized using Digidata 1550A (Axon Instruments, Molecular Devices), and the peak currents were quantified using pCLAMP 10 (Axon Instruments), then normalized and analyzed using Excel 2010 (Microsoft) and SigmaPlot 11.0 (Systat Software). For NS9283 and CMPI potentiation of agonist-induced responses, the peak currents were normalized to current elicited by agonist alone applied within the same recording run. For the effect of coapplication of 1 μM NS9283 or CMPI on agonist concentration-response curve, the peak currents were normalized to current elicited by saturating concentration of agonist applied within the same recording run. […] I0 = 100 for NS9283 and CMPI potentiation of agonist-induced responses and I0 = 0 for agonist concentration-response experiments. The best-fit values for Imax and EC50 ± SD are presented.

(α4H116A)3(β2)2 nAChR [2] = molecular target: T1, (α4H116A)3(β2)2 nAChR; test: Mechanistic (Monod-Wyman-Changeux two-state model) analysis of current responses, (α4H116A)3(β2)2 nAChR; details: α4:α4 site; for Kd: read-out: KR,CMPI
Method: Further analysis of electrophysiological data was conducted in the framework of the two-state concerted transition model, adapted from the MWC cyclic model originally used to describe enzyme function ([31], [32], [33]). The raw peak amplitudes of current responses were converted to units of probability of being in the active state (PA).
The numbers of α4:β2 and α4:α4 binding sites (Nα4:β2 and Nα4:α4) were constrained to 2 and 1, respectively.
The concentration-response curve for TC-2559 was fitted to the following equation:(3) PA=1/1+L[1+[TC-2559]/KR,TC-2559,α4:β2/1+[TC-2559]/(KR,TC-2559,α4:β2cTC-2559,α4:β2)]^Nα4:β2
The concentration-response data were analyzed using Equation 3, with the value of L modified to reflect receptor activation by TC-2559, and the affinity and efficacy terms in the equation reflecting the values for CMPI. The number of binding sites for CMPI in Equation 3 was constrained to 1.
Curve fitting was done using Origin 2020 (OriginLab Corp). The results are reported as best-fit parameter ±SD of the fit. All data are included in the analysis.

(α4K64T)3(β2)2 nAChR = molecular target: T2, (α4K64T)3(β2)2 nAChR (Homo sapiens, UniProt P17787+P43681, K90T); test: Two-electrode voltage-clamp, oocytes expressing (α4K64T)3(β2)2 nAChR
T2 construct: expressed in transfected cells; host or cells: Xenopus laevis oocytes injected with cRNA, 8:1 α4:β2
T2 sequence (P43681 27-627 K90T): as the sequence (P43681 27-627 H142A) above, with K64T, A116H counted along it
T2 sequence (P17787 26-502): as the sequence (P17787 26-502) above
Method: as §1, §2, §3
(§4) 24 to 72 h after cRNA injection, Xenopus oocytes were placed in a custom-made recording chamber that is connected to an eight-channel automated perfusion system (Warner Instruments) and perfused with recording buffer (100 mM NaCl, 2 mM KCl, 1 mM CaCl2, 0.8 mM MgCl2, 1 mM EGTA, and 10 mM Hepes, pH 7.5). Unless otherwise specified in figure legends, each recording run included several drug applications (10 s of an agonist with or without CMPI or NS9283) separated by 3 to 4 min buffer wash intervals. Between recording runs, the oocytes were washed with recording buffer for at last 5 min. […] The currents were digitized using Digidata 1550A (Axon Instruments, Molecular Devices), and the peak currents were quantified using pCLAMP 10 (Axon Instruments), then normalized and analyzed using Excel 2010 (Microsoft) and SigmaPlot 11.0 (Systat Software). […]

(α4E66I)3(β2)2 nAChR = molecular target: T3, (α4E66I)3(β2)2 nAChR (Homo sapiens, UniProt P17787+P43681, E92I); test: Two-electrode voltage-clamp, oocytes expressing (α4E66I)3(β2)2 nAChR
T3 construct: expressed in transfected cells; host or cells: Xenopus laevis oocytes injected with cRNA, 8:1 α4:β2
T3 sequence (P43681 27-627 E92I): as the sequence (P43681 27-627 H142A) above, with E66I, A116H counted along it
T3 sequence (P17787 26-502): as the sequence (P17787 26-502) above
Method: as §1, §2, §3, §4

(α4H116L)3(β2)2 nAChR = molecular target: T4, (α4H116L)3(β2)2 nAChR (Homo sapiens, UniProt P17787+P43681, H142L); test: Two-electrode voltage-clamp, oocytes expressing (α4H116L)3(β2)2 nAChR
T4 construct: expressed in transfected cells; host or cells: Xenopus laevis oocytes injected with cRNA, 8:1 α4:β2
T4 sequence (P43681 27-627 H142L): as the sequence (P43681 27-627 H142A) above, with A116L counted along it
T4 sequence (P17787 26-502): as the sequence (P17787 26-502) above
Method: as §1, §2, §3, §4

[3] = background of activity elicited by ACh
[4] = background of activity elicited by TC-2559

Cc1c(-c2cc(-c3ccccc3Cl)no2)cnn1C1CCNCC1 [CMPI, 3-(2-chlorophenyl)-5-(5-methyl-1-(piperidin-4-yl)-1H-pyrrazol-4-yl)isoxazole]
potentiation fold (Ave ± SD), agonist + 1 μM modulator / agonist alone ((α4H116A)3(β2)2 nAChR [1]; ACh (1 mM)): 1.07 ± 0.13 | potentiation fold (Ave ± SD), agonist + 1 μM modulator / agonist alone ((α4H116A)3(β2)2 nAChR [1]; TC 2559 (30 μM)): 0.74 ± 0.13 | Imax of potentiation, % of control ((α4H116A)3(β2)2 nAChR [1]; TC-2559-induced current, normalized to 1 μM TC-2559): 634 ± 77% | EC50 ((α4H116A)3(β2)2 nAChR [1]; normalized to 1 μM TC-2559, read-out: EC50 of potentiation of TC-2559-induced current): 200 ± 100 nM | cCMPI ((α4H116A)3(β2)2 nAChR [2]; [3]): 0.082 ± 0.007 | Kd ((α4H116A)3(β2)2 nAChR [2]; [3]): 440 ± 120 nM | cCMPI ((α4H116A)3(β2)2 nAChR [2]; [4]): 0.099 ± 0.009 | Kd ((α4H116A)3(β2)2 nAChR [2]; [4]): 230 ± 80 nM | potentiation fold (Ave ± SD), agonist + 1 μM modulator / agonist alone ((α4K64T)3(β2)2 nAChR; ACh (1 mM)): 0.91 ± 0.08 | potentiation fold (Ave ± SD), agonist + 1 μM modulator / agonist alone ((α4K64T)3(β2)2 nAChR; TC 2559 (30 μM)): 1.17 ± 0.21 | potentiation fold (Ave ± SD), agonist + 1 μM modulator / agonist alone ((α4E66I)3(β2)2 nAChR; ACh (1 mM)): 0.83 ± 0.10 | potentiation fold (Ave ± SD), agonist + 1 μM modulator / agonist alone ((α4E66I)3(β2)2 nAChR; TC 2559 (30 μM)): 0.99 ± 0.15 | potentiation fold (Ave ± SD), agonist + 1 μM modulator / agonist alone ((α4H116L)3(β2)2 nAChR; ACh (1 mM)): 0.82 ± 0.05 | potentiation fold (Ave ± SD), agonist + 1 μM modulator / agonist alone ((α4H116L)3(β2)2 nAChR; TC 2559 (30 μM)): 4.58 ± 0.24
